Reference: ChEMBL document CHEMBL4414619, “Protein Tyrosine Phosphatase 1B Inhibitory Iridoids from Psydrax subcordata” (J Nat Prod, 2019)

Assays:
[1] = molecular target: T1, Tyrosine-protein phosphatase non-receptor type 1 (Homo sapiens, UniProt P18031); experiment: Inhibition of N-terminal GST tagged recombinant human PTP1B catalytic domain (1 to 321 residues) expressed in Escherichia coli using pNPP as substrate preincubated for 10 mins followed by substrate addition and measured every 5 mins for 30 mins
T1 sequence (P18031 whole entry): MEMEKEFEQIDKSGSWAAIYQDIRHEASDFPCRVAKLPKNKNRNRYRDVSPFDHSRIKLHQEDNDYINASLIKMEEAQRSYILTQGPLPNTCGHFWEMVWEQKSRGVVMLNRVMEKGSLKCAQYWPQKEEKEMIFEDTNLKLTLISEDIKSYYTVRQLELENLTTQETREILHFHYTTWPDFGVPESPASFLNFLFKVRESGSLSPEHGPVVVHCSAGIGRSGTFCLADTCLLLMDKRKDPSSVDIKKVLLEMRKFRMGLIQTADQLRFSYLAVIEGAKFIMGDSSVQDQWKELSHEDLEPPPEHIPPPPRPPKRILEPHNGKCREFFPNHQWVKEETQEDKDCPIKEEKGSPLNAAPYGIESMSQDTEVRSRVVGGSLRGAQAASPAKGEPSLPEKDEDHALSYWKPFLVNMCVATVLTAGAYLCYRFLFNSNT

[2] = molecular target: T2, Tyrosine-protein phosphatase non-receptor type 1 (Homo sapiens) (UniProt P18031); experiment: (§1) Ratio of kinetic constant Kik to Kiv at N-terminal GST-tagged recombinant human PTP1B catalytic domain (1 to 321 residues) expressed in Escherichia coli using pNPP as substrate preincubated for 10 mins followed by incubation with substrate for 30 mins and measured every 5 mins for 30 mins by Lineweaver-burk plot analysis
T2 sequence (whole entry): T1 sequence (P18031 whole entry)

[3] = molecular target: T1, Tyrosine-protein phosphatase non-receptor type 1; experiment: as §1, with “Competitive inhibition” for “Ratio”, “of” for “of kinetic constant Kik to Kiv at”, “coli assessed as inhibitory constant” for “coli”, “plot based Dixon plot” for “plot”

Row | IC50 [1] [µM] | Ratio [2] | Ki [3] [µM] | Structure (SMILES)
1 | 8.9 | 6.86 to 37.6 | 2.57 | CC1=C2COC(=O)[C@@H](CO)[C@H]2[C@H](O)C1
2 | > 80 | – | – | CC1=C2C(=O)OCC[C@H]2[C@H](O)C1
3 | 9.8 | 6.86 to 37.6 | 4.13 | CC1=C2COC(=O)[C@H](CO)[C@H]2[C@H](O)C1
4 | > 80 | – | – | COC(=O)[C@H]1COC(=O)C2=C(C)C[C@@H](O)[C@@H]21

More lines, now with the values behind:

Row | Structure (SMILES) | IC50 [1] [µM] | Ratio [2] | Ki [3] [µM]
5 | COC(=O)C1=C(C)C[C@@H](O)[C@@H]1CCO | > 80 | – | –
6 | CC1=C(CO)[C@@H](CCO)[C@H](O)C1 | > 80 | – | –
7 | CC1=C[C@@H](O)[C@@H]2[C@@H](CO)C(=O)O[C@]12CO | 43.6 | – | –
8 | COC(=O)[C@H](CO)[C@@H]1C(CO)=C(C)C[C@H]1O | > 80 | – | –
9 | COC(=O)C1=CO[C@@]2(C)C[C@@H](O)[C@H]1[C@@H]2CO | 22.2 | – | –
10 | COC(=O)C1=C(C)C[C@@H](O)[C@@H]1[C@H](CO)C(=O)OC | > 80 | – | –
11 | COC(=O)[C@@H](CO)[C@@H]1C(CO)=C(C)C[C@H]1O | > 80 | – | –
